Experimental data taken from patent US8247603B2, “Deuterated catecholamine derivatives and medicaments comprising said compounds” (Birds Pharma GmbH Berolina Innovative, priority 2006, dated 2012).

How the values were obtained:
[1] = tested on: dopamine output in the striatum; assay: Striatal dopamine output measured by microdialysis; format: in vivo, Male Wistar rats; details: for Increase of dopamine in the striatum compared to L-DOPA (comparison of AUC0-t): 50 mg/kg i.p., relative to L-DOPA; for Increase of dopamine in the striatum compared to L-DOPA (comparison of AUC0-t) / Baseline corrected dopamine output in the striatum, AUC0-t: Male Wistar rats; for Baseline corrected dopamine output in the striatum, AUC0-t: 50 mg/kg intraperitoneal, 10 mg/kg Carbidopa i.p. 30 min before, microdialysis in dorsolateral striatum
Protocol: The striatal output of dopamine was measured in Male Wistar rats following intraperitoneal administration of 50 mg/kg L-2-Amino-3-(3,4-dihydroxyphenyl) propionic acid (L-DOPA), L-2-Amino-2,3,3-trideutero-3-(3,4-dihydroxyphenyl) propionic acid (WO-A 2004/056724, Example 6) and L-2-Amino-2,3-dideutero-3-(3,4-dihydroxyphenyl) propionic acid (Example 6), respectively. Male wistar rats (BK Universal, Sollentuna, Sweden) weighing about 300 g at the time of experiment were anaesthetized with a cocktail containing fentanyl citrate (0.39 mg/kg) and fluanisone (12.5 mg/kg, Hypnorm®, Janssen-Cilag) and midazolam (6.25 mg/kg, Dormicum®, Roche) diluted in distilled water (1:1:2; 5 ml/kg i.p.) and mounted in a stereotaxic frame. Dialysis probes were implanted in the dorsolateral striatum (AP: +0.6: ML+3.0: DV −6.2 relative to bregma and the dural surface according to the atlas of Paxinos and Watson (1998)). Dialysis occurs through a semipermeable membrane (Filtral AN69, Hospal Industrie, France) with an active surface length of 3.5 mm. Dialysis experiments were conducted approximately 48 h after surgery in freely moving rats. The rats received 30 min before administration of test items 10 mg/kg Carbidopa, (i.p.). The dialysis probe was perfused with a physiological perfusion solution (Apoteksbolaget, Sweden) at a rate of […] set by a microinfusion pump (Harvard Apparatus, Holliston, Mass.). Dialysate was collected over 15 min intervals and automatically injected into a high performance liquid chromatography (HPLC) system. On-line quantification of dopamine in the dialysate was accomplished by electro-chemical detection (ESA, Chelmsford, Mass.). The location of microdialysis probes was verified in slices of formalin-fixed tissue stained with neutral red. The baseline corrected concentrations (fmol/min) were plotted over the time.

[2] = tested on: striatal output of norepinephrine; assay: Striatal output of norepinephrine; format: in vivo; details: compared to L-DOPA
[3] = Therapeutic equivalence during continuous intravenous infusion; format: in vivo
Description: The optimal infusion rate for L-DOPA methyl ester was 2.7 times that required for L-DOPA (Stocchi et al. 1992, Movement Disorders, 7: 249-256).

dopamine in the striatum = details: male Wistar rats; known from WO-A 2004/056724; cited from earlier work
[4] = given orally or intraperitoneally, on a molar basis; cited from earlier work
[5] = cited from earlier work
[6] = tested on: Parkinson's disease exhibiting severe on-off phenomena; details: continuous intravenous infusion, patients with Parkinson's disease with severe on-off phenomena; cited from earlier work

Row | Compound | Increase of dopamine in the striatum compared to L-DOPA (comparison of AUC0-t) [1] | Baseline corrected dopamine output in the striatum, AUC0-t [1] | Striatal output / formation of norepinephrine [2] | other results
1 | [2H][C@@H](c1ccc(O)c(O)c1)[C@]([2H])(N)C(=O)O [Example 6, L-2-Amino-2,3(S)-dideutero-3-(3,4-dihydroxyphenyl) propionic acid] | threefold higher | 685 fmol/min*min | does not block the formation of norepinephrine | Increase of dopamine in the striatum compared to L-2-Amino-2,3,3-trideutero-3-(3,4-dihydroxyphenyl) propionic acid ([1]; Example 15 and Table 1): significantly more
2 | [2H][C@@H](c1ccc(O)c(O)c1)[C@]([2H])(N)C(=O)OC [Example 7, L-2-Amino-2,3(S)-dideutero-3-(3,4-dihydroxyphenyl)methyl propionate] |  |  |  | Therapeutic equivalence to L-2-Amino-2,3-dideutero-3-(3,4-dihydroxyphenyl) propionic acid [3]: therapeutically equivalent
3 | [2H]C([2H])(c1ccc(O)c(O)c1)[C@]([2H])(N)C(=O)O [L-2-Amino-2,3,3-trideutero-3-(3,4-dihydroxyphenyl) propionic acid] | about twice as high | 533 fmol/min*min | reduces the striatal output of norepinephrine | Increase of dopamine in the striatum compared to non-deuterated L-DOPA (dopamine in the striatum): significantly more
4 | N[C@@H](Cc1ccc(O)c(O)c1)C(=O)O [L-2-Amino-3-(3,4-dihydroxyphenyl) propionic acid] |  | 228 fmol/min*min |  | 
5 | COC(=O)[C@@H](N)Cc1ccc(O)c(O)c1 [L-DOPA methyl ester] |  |  |  | Equivalence to L-DOPA in animal experiments [4]: equivalent on a molar basis to L-DOPA; Solubility [5]: highly soluble; Optimal infusion rate relative to that required for L-DOPA [6]: 2.7 times
